Values quoted from earlier work, collected in patent US10842805B2, “Compositions containing enriched natural crocin and/or crocetin, and their therapeutic or nutraceutical uses” (priority 2012, dated 2020).

System: ethanol-induced inhibition of hippocampal long-term potentiation
Details: mouse, in vivo

| SMILES | constituent to which the beneficial effect of saffron extract is attributed |
| --- | --- |
| CC(/C=C/C=C(\C)C(=O)O)=C\C=C\C=C(C)\C=C\C=C(/C)C(=O)O [crocetin] | not crocetin |
| CC(/C=C/C=C(\C)C(=O)O[C@@H]1O[C@H](CO[C@@H]2O[C@H](CO)[C@@H](O)[C@H](O)[C@H]2O)[C@@H](O)[C@H](O)[C@H]1O)=C\C=C\C=C(C)\C=C\C=C(/C)C(=O)O[C@@H]1O[C@H](CO[C@@H]2O[C@H](CO)[C@@H](O)[C@H](O)[C@H]2O)[C@@H](O)[C@H](O)[C@H]1O [crocin, Crocetin-di-beta-D-gentiobiosyl ester] | attributed to crocin |
